Data: patent US20110059885A1, “TREATMENT OF DISEASES AND CONDITIONS MEDIATED BY EICOSANOIDS” (Natural Environment Research Council, priority 2008, published 2011)
Each block holds one compound with its values, some of them ahead of it.

Experiments:
Human BLT2 = molecular target: T1, Human BLT2 (Homo sapiens, UniProt Q9NPC1); details: cited from earlier work
T1 sequence (Q9NPC1 1-358): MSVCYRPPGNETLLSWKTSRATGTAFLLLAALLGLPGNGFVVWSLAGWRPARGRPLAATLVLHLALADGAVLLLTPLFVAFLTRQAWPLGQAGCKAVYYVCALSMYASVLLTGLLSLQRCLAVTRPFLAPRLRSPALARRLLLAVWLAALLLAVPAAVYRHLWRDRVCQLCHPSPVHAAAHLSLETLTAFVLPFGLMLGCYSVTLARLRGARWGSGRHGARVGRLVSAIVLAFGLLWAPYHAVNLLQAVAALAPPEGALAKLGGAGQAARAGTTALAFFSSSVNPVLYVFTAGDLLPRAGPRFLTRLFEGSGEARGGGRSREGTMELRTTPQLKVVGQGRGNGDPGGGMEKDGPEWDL

[1] = system: immune complex induced lung injury; assay: Immune complex induced lung disease (intranasal anti-Ova antibody); type: in vivo, mouse
Protocol: Recombinant OmCI was given at 0, 50, 100 and 250 μg intravenously together with 300 μg Ova containing 0.3% Evans blue (EB). […] MK886 is a leukotriene synthesis inhibitor. MK886 was administered with 300 μg Ova containing 0.3% Evans blue (EB) as a positive control.

[2] = system: LTB4 induced skin reaction; assay: Local skin reaction induced by topical application of LTB4; type: in vivo, human
Protocol: Reactions appear after 12 hours and peak at 24-48 hours.
The solutions were then applied to the flexor surface of the forearm and air dried. […] The deposits were occluded under a chamber which was removed after 6 hours. Skin reactions were observed from 12-96 hours.
Solutions were incubated for 10 minutes at room temperature then applied to the flexor surface of the forearm and air dried. […] The deposits were occluded under a chamber which was removed after 6 hours. Skin reactions were observed from 12-96 hours.

[3] = LTB4 binding by UV absorbance after ultrafiltration
Protocol: The mixture was concentrated to 200 μl in Vivaspin (Sartorious) 5 kDa cut off ultrafiltration device. The retentate was washed with a further 30 mL of PBS and concentrated to 200 μl. In parallel, the same amount (4.5 mg) of bOmCI was incubated with 1.8 ml ultrapure ethanol in 39 mL PBS, then concentrated and washed as described above. The final volume of the concentrated proteins was 200 μl. UV absorption spectra of the proteins were examined using a Nanodrop ND-1000 Spectrophotometer.

[4] = Competitive EIA for thromboxane B2 binding
Protocol: (§1) 100 μl of the standard solutions were mixed with ≦90 of PBS or diluted stock solutions of OmCI or RaHBP2. The mixtures were incubated at room temperature for 20 minutes then used in the immunoassays in accordance with the manufacturers instructions. The absorbance readings of the treated samples were compared with a standard curve to estimate the concentration of eicosanoids available in solution for binding by the anti-eicosanoid polyclonal antibodies.

[5] = LTB4 EIA using only LTB4-AP conjugate as ligand; type: binding; details: for comparison of LTB4-AP binding by yOmCI and bOmCI: equivalent concentrations (FIG. 9)
Protocol: as §1

[6] = Competitive EIA for cysteinyl leukotriene binding; details: data not shown
Protocol: as §1

[7] = Competitive EIA for LTB4 with unlabelled LTB4; type: binding; details: 750 pg/mL LTB4 added (FIG. 7)
Protocol: as §1

[8] = Competitive enzyme immunoassay (EIA) for 12(S)-HETE binding; details: for proportion of 12(S)-HETE bound: 634 molar excess OmCI to 12(S)-HETE, 12500 pg/mL 12(S)-HETE (FIG. 5)
Protocol: Competitive enzyme immunoassays (EIAs) from Assay Designs Inc. are available for the quantification of a number of the eicosanoids. One such EIA kit uses a polyclonal antibody to 12(S)-HETE to bind 12(S)-HETE labelled with alkaline phosphatase and competing unlabelled 12(S)-HETE in the sample or standards of known concentration. After simultaneous incubation at room temperature and capture of the antibody on the plate, the excess reagents are washed away, the substrate added and reaction measured by microplate reader. The higher the concentration of 12(S)-HETE in sample or standard the lower the absorbance reading, because the unlabelled fatty acid competes for binding with the alkaline phosphatase labelled molecule.
12(S)-HETE EIA Kit was from Assay Designs (Cat. No. 900-050). OmCI stocks used were expressed either in yeast (yOmCI) or bacteria (bOmCI). Both stocks were ≧98% pure, 8.3 mg/mL in phosphate buffered saline pH 7.2 (PBS). The negative control tick histamine binding protein RaHBP2, which is also a lipocalin (Paesen et al., 1999), was expressed in bacteria and was also ≧98% pure, 8.3 mg/mL in PBS. 12(S)-HETE standard was diluted to 50000, 12500, 3125, 781, 195 pg/mL in the assay buffer supplied with the kit. 100 μl of the 12500, 3125 and 0 pg/mL solutions were mixed with ≦9 μl of phosphate buffered saline pH 7.2 (PBS) or solutions of OmCI or RaHBP2 in PBS. The mixtures were incubated at room temperature for 20 minutes then used in the 12(S)-HETE immunoassay in accordance with the manufacturers instructions. The absorbance readings of the treated samples were compared with a standard curve to estimate the concentration of 12(S)-HETE available in solution for binding by the anti-12(S)-HETE polyclonal antibody.
Similar methods to those described in Example 1 were used.

[9] = Example 5, bOmCI 33×, 16×, 7×, 2× or ovalbumin 15×, 3×, 1× molar excess, forearm (FIG. 12)
[10] = 50 μg intravenous (legend of FIG. 16)
[11] = 100 μg intravenously 15 min prior to intranasal OVA antibody
[12] = AP conjugate only, data not shown

Compound: CCCCC/C=C\C[C@@H](O)/C=C/C=C/C=C\[C@@H](O)CCCC(=O)O [LTB4, leukotriene B4]
- lower affinity of BLT2 than BLT1 for LTB4 (Human BLT2): 20 fold

Compound: CC(C)c1ccc2c(c1)c(SC(C)(C)C)c(CC(C)(C)C(=O)O)n2Cc1ccc(Cl)cc1 [MK886, reference compound]
- microvascular damage and inflammation ([1]; positive control (FIG. 16)): reduced dramatically

Compound: OmCI preloaded with LTB4: bOmCI with LTB4 loaded into the binding pocket (example 6)
- skin reaction induced by 100 ng LTB4 ([2]; Example 8, 4:1 molar ratio, preloaded protein): did not prevent the skin reaction
- inhibitory effect on immune complex induced disease after saturation of the LTB4 binding site ([1]; OmCI preloaded with LTB4 (FIG. 16)): attenuated the inhibitory effect of OmCI although it did not abrogate the response

Compound: OmCI: soft tick derived complement (C) inhibitor of Ornithodoros moubata, SEQ ID NO: 2 / 3; binds C5 and LTB4
- LTB4 binding stoichiometry and affinity ([3]; conclusion from examples 6 and 7): binds to a single molecule of LTB4 with high affinity
- skin reaction induced by 100 ng LTB4 [2, 9]: completely ablated
- skin reaction induced by 100 ng LTB4 ([2]; Example 8, 4:1 to 1:1 molar ratio (FIG. 15)): ablated the skin reaction
- lesion formation compared to LTB4 alone ([2]; Example 8, molar ratios 0.5:1 and less): no effect on lesion formation
- dose dependence of effect ([1]; 0, 50, 100 and 250 μg intravenously, data not shown): dose dependent
- neutrophil recruitment in the lung [1, 10]: reduces neutrophil recruitment in the lung
- vascular permeability and protein exudation [1, 10]: decreases vascular permeability and protein exudation
- neutrophil recruitment in the lung [1, 11]: reduced neutrophil recruitment in the lung
- pulmonary microvascular damage and protein exudations in the bronchoalveolar space [1, 11]: reduced protein exudations

Compound: Ovalbumin: negative control protein ovalbumin (Mr 45 kDa) [reference compound]
- skin reaction induced by 100 ng LTB4 [2, 9]: no effect on lesion formation
- lesion formation ([2]; Example 8, negative control protein): no inhibitory effect on lesion formation

- binding of TXB2 ([4]; 3333 pg/mL TXB2 (FIG. 6)): does not appear to bind
- direct binding of TXB2-AP conjugate [4, 12]: not bound directly
- competition of excess 12(S)-HETE with LTB4-AP binding ([5]; 8.24 μg bOmCI (FIG. 10)): does not outcompete
- binding to LTB4-AP ([5]; dilution series, 50 μL LTB4-AP, no unlabelled LTB4 (FIG. 8)): dose dependent binding
- comparison of LTB4-AP binding by yOmCI and bOmCI [5]: fairly similar
- direct binding of cys-LK-AP conjugate ([6]; AP conjugate only): not bound directly
- binding of Cys-LKs [6]: does not appear to bind
- proportion of 12(S)-HETE bound [8]: 97%
- direct binding of 12(S)-HETE-AP conjugate [8, 12]: not bound directly
Compound: bOmCI: bacterial expressed OmCI
- LTB4 bound from solution ([3]; 1:1 molar ratio OmCI:LTB4, flow through of ultrafiltration (FIG. 13A)): all the LTB4 added to initial mixture was bound
- amount of protein that binds approximately 50% of the LTB4-AP ([5]; FIG. 8): 0.33 µg
- excess of protein needed to bind 50% of the LTB4-AP ([5]; calculated assuming 100% conjugation efficiency and IC50=1:1 binding): 1200 ×
- estimated concentration of LTB4 in solution [7]: 10000 pg/mL
- amount of 12(S)-HETE available in solution for antibody binding ([8]; 20 min preincubation with 12500 pg/mL 12(S)-HETE, 41.2 μg protein (FIG. 2)): decreases the amount of 12(S)-HETE available in solution
- effect of prolonged incubation on proportion of 12(S)-HETE bound ([8]; overnight at room temperature (FIG. 4)): does not increase the proportion of 12(S)-HETE bound

- comparison of LTB4-AP binding by yOmCI and bOmCI [5]: fairly similar
- proportion of 12(S)-HETE bound [8]: roughly 50%
Compound: yOmCI: yeast expressed OmCI
